Assay results taken from patent US9132130B2, “Purine derivative and antitumor agent using same” (ZENYAKU KOGYO KABUSHIKI KAISHA, priority 2009, dated 2015).

Experiments:
Type in all cases: cell-based
[1] = test system: P388 cells (mouse leukemia cells); test: in vitro antitumor activity test, P388 cells, XTT colorimetry; conditions: cultured 72 hours
Experimental: P388 cells (mouse leukemia cells) passaged in the abdominal cavity of DBA/2 mice were extracted with ascitic fluid, and cultured in a RPMI 1640 medium (added with 10% fetal bovine serum, 25 mM HEPES, 0.1 mg/ml kanamycin and 5 μM 2-hydroxyethyldisulfide) at 37° C. in 5% carbon dioxide gas. After culturing for 16 hours, floating P388 cells were made into a single cell suspension of 4×10^4 cells per 1 ml using the same RPMI 1640 medium as given above. The test substances were dissolved in DMSO, then diluted in a RPMI 1640 medium (added with 10% fetal bovine serum, 25 mM HEPES and 0.1 mg/ml kanamycin) and prepared so that the concentrations were 2.0×10^−9 to 2.0×10^−4 M.
0.1 ml of the cell suspension was placed into each well of 96-well microplates, then 0.1 ml of the sample solutions were added, and cultured for 72 hours at 37° C. in 5% carbon dioxide gas.
(§1) Afterwards, the level of growth inhibition at various sample concentrations was obtained using XTT colorimetry, and concentrations at which growth was inhibited by 50% (GI50 values [μM]) were calculated.

[2] = test system: PC-3 cells (human prostate cancer cells); test: in vitro antitumor activity test, PC-3 cells, XTT colorimetry; conditions: PC-3 human prostate cancer cells, cultured 72 hours
Experimental: (§2) WiDr cells (human colon cancer cells) subcultured in a culture medium composed of a MEM medium added with 10% fetal bovine serum, 25 mM HEPES and 0.1 mg/ml kanamycin under the conditions of 37° C. and 5% carbon dioxide gas were made into single floating cells by treating with trypsin/EDTA, and a single cell suspension of 3×10^4 cells per 1 ml was prepared using the MEM medium (added with 10% fetal bovine serum, 25 mM HEPES and 0.1 mg/ml kanamycin). After dissolving the test compounds in DMSO, they were diluted in a RPMI 1640 medium (added with 10% fetal bovine serum, 25 mM HEPES and 0.1 mg/ml kanamycin) and prepared so that the concentrations were 2.0×10^−9 to 2.0×10^−4 M.
(§3) 0.1 ml of the cell suspension was placed into each well of 96-well microplates, cultured for 24 hours to allow the cells to adhere to the microplates, then 0.1 ml of the sample solutions were added, and cultured for 72 hours at 37° C. in 5% carbon dioxide gas.
as §1
(§4) In addition, cells other than WiDr cells that were used, and the condition for preparing each single cell suspension were as follows.
PC-3 cells (human prostate cancer cells): 2×10^4 cells/ml

[3] = test system: B16F10 cells (mouse melanoma [malignant melanoma] cells); test: in vitro antitumor activity test, B16F10 cells, XTT colorimetry; conditions: B16-F10, cultured 72 hours
Experimental: as §2, §3, §1, §4
B16F10 cells (mouse melanoma [malignant melanoma] cells): 1×10^4 cells/ml

[4] = test system: WiDr cells (human colon cancer cells); test: in vitro antitumor activity test, WiDr cells, XTT colorimetry; conditions: cultured 72 hours
Experimental: as §2, §3, §1

[5] = test system: A549 cells (human lung cancer cells); test: in vitro antitumor activity test, A549 cells, XTT colorimetry; conditions: cultured 72 hours
Experimental: as §2, §3, §1, §4
A549 cells (human lung cancer cells): 2×10^4 cells/ml

Compound	GI50 [1]	GI50 [2]	GI50 [3]	GI50 [4]	GI50 [5]
CCc1nc2c(N3CCOCC3)nc(SC(c3ccccc3)c3ccccc3)nc2n1C [Compound 100, 2-benzhydrylsulfanyl-8-ethyl-9-methyl-6-morpholino-9H-purine]	3290 nM	150 nM	4630 nM	6110 nM	3900 nM
CCn1c(C)nc2c(N3CCOCC3)nc(SCc3ccc(OC)cc3)nc21 [Compound 102, 9-ethyl-2-(4-methoxybenzylsulfanyl)-8-methyl-6-morpholino-9H-purine]	720 nM	830 nM	1420 nM	920 nM	830 nM
CCOc1ccc(CSc2nc(N3CCOCC3)c3nc(CC)n(C)c3n2)cc1N [Compound 103, 2-(3-amino-4-ethoxybenzylsulfanyl)-8-ethyl-9-methyl-6-morpholino-9H-purine]	170 nM	130 nM	320 nM	280 nM	230 nM
COc1ccc(CSc2nc(N(C)OC)c3ncn(C)c3n2)cc1 [Compound 105, 6-(N-methoxy-N-methylamino)-2-(4-methoxybenzylsulfanyl)-9-methyl-9H-purine]	240 nM	560 nM	410 nM	260 nM	240 nM
CCOc1ccc(CSc2nc(N3CCOCC3)c3nc(CC)n(CC)c3n2)cc1N [Compound 106, 2-(3-amino-4-ethoxybenzylsulfanyl)-8,9-diethyl-6-morpholino-9H-purine]	200 nM	950 nM	300 nM	290 nM	140 nM
CCOc1ccc(CSc2nc(NC)c3ncn(C)c3n2)cc1N [Compound 107, 2-(3-amino-4-ethoxybenzylsulfanyl)-9-methyl-6-methylamino-9H-purine]	30 nM	50 nM	100 nM	310 nM	70 nM
COc1ccc(CSc2nc(-n3cccc3)c3ncn(C)c3n2)cc1 [Compound 109, 9-methyl-2-(4-methoxybenzylsulfanyl)-6-(1-pyrrolyl)-9H-purine]	320 nM	580 nM	510 nM	360 nM	570 nM
COc1ccc(CSc2nc(-n3ccnc3)c3ncn(C)c3n2)cc1 [Compound 110, 6-(imidazol-1-yl)-2-(4-methoxybenzylsulfanyl)-9-methyl-9H-purine]	470 nM	1400 nM	1430 nM	790 nM	950 nM
CCOc1ccc(CSc2nc(N3CCOCC3)c3nc(CC)n(C)c3n2)cc1F [Compound 116, 2-(4-ethoxy-3-fluorobenzylsulfanyl)-8-ethyl-9-methyl-6-morpholino-9H-purine]	290 nM	320 nM	440 nM	330 nM	450 nM
CCOc1ccc(CSc2nc(N3CCOCC3)c3nc(CC)n(CC)c3n2)cc1F [Compound 117, 8,9-diethyl-2-(4-ethoxy-3-fluorobenzylsulfanyl)-6-morpholino-9H-purine]	300 nM	310 nM	370 nM	290 nM	430 nM
CCc1nc2c(N3CCOCC3)nc(SCc3ccc(OC)c(F)c3)nc2n1CC [Compound 123, 8,9-diethyl-2-(3-fluoro-4-methoxybenzylsulfanyl)-6-morpholino-9H-purine]	130 nM	240 nM	370 nM	200 nM	420 nM
COc1ccc(CSc2nc(N3CC=CC3)c3ncn(C)c3n2)cc1 [Compound 130, 2-(4-methoxybenzylsulfanyl)-9-methyl-6-(3-pyrrolin-1-yl)-9H-purine]	250 nM	540 nM	630 nM	280 nM	400 nM
COc1ccc(CSc2nc(N(C)OC)c3ncn(C)c3n2)cc1F [Compound 137, 2-(3-fluoro-4-methoxybenzylsulfanyl)-6-(N-methoxy-N-methylamino)-9-methyl-9H-purine]	60 nM	60 nM	100 nM	70 nM	50 nM
CCOc1ccc(CSc2nc(N(C)C)c3ncn(C)c3n2)cc1N [Compound 140, 2-(3-amino-4-ethoxybenzylsulfanyl)-6-dimethylamino-9-methyl-9H-purine]	50 nM	110 nM	160 nM	360 nM	90 nM
COc1ccc(CSc2nc(-n3cccc3)c3ncn(C)c3n2)cc1N [Compound 141, 2-(3-amino-4-methoxybenzylsulfanyl)-9-methyl-6-(1-pyrrolyl)-9H-purine]	260 nM	470 nM	410 nM	4850 nM	370 nM

Continued, values first:

GI50 [1]	GI50 [2]	GI50 [3]	GI50 [4]	GI50 [5]	Compound
50 nM	100 nM	190 nM	1150 nM	80 nM	COc1ccc(CSc2nc(N3CC=CC3)c3ncn(C)c3n2)cc1[N+](=O)[O-] [Compound 142, 2-(4-methoxy-3-nitrobenzylsulfanyl)-9-methyl-6-(3-pyrrolin-1-yl)-9H-purine]
< 40 nM	130 nM	190 nM	810 nM	80 nM	COc1ccc(CSc2nc(N(C)OC)c3ncn(C)c3n2)cc1N [Compound 145, 2-(3-amino-4-methoxybenzylsulfanyl)-6-(N-methoxy-N-methylamino)-9-methyl-9H-purine]
40 nM	120 nM	80 nM	40 nM	50 nM	COc1ccc(CSc2nc(N3C=COCC3)c3ncn(C)c3n2)cc1 [Compound 147, 6-(2,3-dihydro-[1,4]oxadin-4-yl)-2-(4-methoxybenzylsulfanyl)-9-methyl-9H-purine]
90 nM	130 nM	290 nM	130 nM	240 nM	CCc1nc2c(N3C=COCC3)nc(SCc3ccc(OC)cc3)nc2n1C [Compound 148, 6-(2,3-dihydro-[1,4]oxadin-4-yl)-8-ethyl-2-(4-methoxybenzylsulfanyl)-9-methyl-9H-purine]
490 nM	530 nM	1380 nM	350 nM	470 nM	COc1ccc(CSc2nc(N3C=COCC3)c3ncn(C)c3n2)cc1[N+](=O)[O-] [Compound 149, 6-(2,3-dihydro-[1,4]oxadin-4-yl)-2-(4-methoxy-3-nitrobenzylsulfanyl)-9-methyl-9H-purine]
110 nM	150 nM	300 nM	780 nM	150 nM	COc1ccc(CSc2nc(N3C=COCC3)c3ncn(C)c3n2)cc1N [Compound 150, 2-(3-amino-4-methoxybenzylsulfanyl)-6-(2,3,-dihydro-[1,4]oxadin-4-yl)-9-methyl-9H-purine]
570 nM	1440 nM	1470 nM	3400 nM	700 nM	CCn1cnc2c(N3C=COCC3)nc(SCc3ccc(OC)c(N)c3)nc21 [Compound 151, 2-(3-amino-4-methoxybenzylsulfanyl)-6-(2,3-dihydro-[1,4]oxadin-4-yl)-9-ethyl-9H-purine]
